Format in all cases: protein-complex assay
In test [1] the target is T1, cAMP-dependent protein kinase A (Bos taurus, UniProt P00515+P00517+P05131+P31322). Description: Inhibition of PKA at 100 uM ATP.
For test [2], the target named is T1, cAMP-dependent protein kinase A. The test is described as follows: Inhibition of PKA at 2 mM ATP.
Test [3] shares this target. The test is described as follows: Inhibitory constant for Protein Kinase A.

Structures are written as SMILES.

As to `N=C(N)NCCOCCOCCn1cnc2c(N)ncnc21`, the IC50 in test [1] was found to be 1700 µM; in test [2] it was 6200 µM. The same compound yielded a Ki in test [3] of 150 µM.
For `N=C(N)NCCn1cnc2c(N)ncnc21`, the 50% inhibitory concentration (IC50) in test [1] came to 420 µM; in test [2], 790 µM. For the same compound, the Ki in test [3] was 38 µM.
For `N=C(N)NCCOCCn1cnc2c(N)ncnc21`, the values for the half-maximal inhibitory concentration (IC50) in test [1] and in test [2] were 320 µM and 760 µM, respectively. Also, affinity in test [3] was put at a Ki of 29 µM.
The matching figures for `Nc1ncnc2c1ncn2[C@@H]1O[C@H](CO)[C@@H](O)[C@H]1O` [ADENOSINE]: 160 µM, 1100 µM and 15 µM.

One may read the IC50 as the midpoint of a concentration-inhibition curve. Usually Ki stands for the dissociation constant of the complex between target and ligand, obtained from inhibition or displacement. Read a low Ki as a stronger hold on the target.

The values above are taken from ChEMBL document CHEMBL1129780, “Adenine-arginine mimetics as bisubstrate analog inhibitors of cAMP-dependent protein kinase” (Bioorg Med Chem Lett, 1996).
